Patent US9919034B2, “Methods of treating and prophylactically protecting mammalian patients infected by viruses classified in Baltimore group V” (priority 2014, dated 2018)
Read-outs that look alike come from different tables or passages of the source.

What was measured:
NHBE cells [1] = assay: Microscopy evaluation of treated NHBE cells (RSV study toxicity controls); settings: sham infected
NHBE cells [2] = test system: NHBE cells
[3] = test system: adenovirus 2, strain Miller; assay: Adenovirus yield in NHBE cells (titers in A-549 cells); format: cell-based; settings: for reduction in virus titers: vs untreated infected controls
Vero 76 cells = assay: Toxicity in Vero 76 cells (crystal violet staining density)
vaccinia, strain WR = assay: microbe, parasite or virus in culture; format: cell-based; settings: read-out: EC50 (concentration reducing plaque numbers by 50%)
RV-14 (strain 1059) = assay: RV-14 yield in NHBE cells (titers in HeLa-Ohio-1 cells); format: cell-based, rhinovirus-14
NHBE cells [4] = assay: Microscopy evaluation of treated NHBE cells (RV-14 study toxicity controls)
[5] = test system: influenza A/California/07/2009(H1N1)pdm09 virus; format: cell-based
RSV A2 = assay: RSV yield in NHBE cells (titers in MA-104 cells); format: cell-based; settings: all treatments (5 μM, 0.5 μM, 0.1 μM), 48 hours post infection
NHBE cells [6] = test system: NHBE cells; remark: listed apart in the source
MERS-CoV virus = format: cell-based
A-72 cells = assay: Cytotoxicity of ranpirnase in A-72 cells (morphology); settings: any of the concentrations tested, 4 days
tRNA = settings: Lin et al., 1994; cited from earlier work
VEEV = format: cell-based

Nc1ccn([C@H]2CC[C@@H](CO)O2)c(=O)n1 [2′3′-dideoxycytidine, reference compound]
microscopy evaluation of treated NHBE cells (toxicity) (NHBE cells [1]): no toxicological phenomena | microscopy evaluation of treated NHBE cells (toxicity) (NHBE cells [2]): no toxicological phenomena | inhibition of virus replication (positive control) ([3]; NHBE cells, adenovirus MOI 0.1): inhibited virus replication as expected

Nc1ccn(C[C@@H](CO)OCP(=O)(O)O)c(=O)n1 [cidofovir, reference compound]
toxicity (Vero 76 cells; dilutions used in the assay): Neither ranpirnase nor cidofovir was toxic | EC50 (vaccinia, strain WR; Orthopoxvirus vaccinia, Vero 76, 48 h): 10 µM

CCOC(=O)c1ccc(OCCC2CCN(c3ccc(C)nn3)CC2)cc1 [pirodavir, reference compound]
activity against RV-14 (RV-14 (strain 1059); 0.0032 μg/ml, NHBE cells): inactive | inhibition of virus replication (positive control) (RV-14 (strain 1059); 10 and 3.2 μg/ml): inhibited virus replication as expected | microscopy evaluation of treated NHBE cells (toxicity) (NHBE cells [4]): no toxicological phenomena

ranpirnase
reduction in virus titers (RV-14 (strain 1059); 1 μM, 4 days post infection): ~1 log | drop in virus titer (RV-14 (strain 1059); 5 μM, 4 days post infection): ~1.67 log 10 | drop in virus titer (RV-14 (strain 1059); 10 μM, 4 days post infection): ~1.67 log 10 | drop in virus titer (RV-14 (strain 1059); 50 μM, 4 days post infection): ~1.67 log 10 | microscopy evaluation of treated NHBE cells (toxicity) (NHBE cells [4]): no toxicological phenomena | microscopy evaluation of treated NHBE cells (toxicity) (NHBE cells [1]): no toxicological phenomena | SI (CC50/IC50) (CHIV): over 18 | inhibition of CHIV (CHIV): robust inhibition | activity against influenza A/California/07/2009(H1N1)pdm09 virus (virus titer) [5]: statistically significant and dose-dependent | reduction in virus titers compared to untreated, infected controls (RSV A2): 2.3 log | virus titers after treatment (RSV A2): undetectable levels | viability of NHBE cells (NHBE cells [6]): did not decrease the viability | microscopy evaluation of treated NHBE cells (toxicity) (NHBE cells [2]): no toxicological phenomena | activity against MERS-CoV virus compared with SARS protease inhibitor and Infergen (viral titer) (MERS-CoV virus): far more active | cytotoxic effect (visual morphology) (A-72 cells): no apparent cytotoxic effect | SI (CC50/IC50) (EBOV): 40-77 | inhibition of EBOV (EBOV): robust inhibition | degradation of tRNA (tRNA): degrades tRNA very effectively | toxicity (Vero 76 cells; 100 μM): not toxic | toxicity (Vero 76 cells; dilutions used in the assay): Neither ranpirnase nor cidofovir was toxic | reduction in virus titers ([3]; 5 μM): ~1 log | reduction in virus titers ([3]; 10 μM): ~1 log | drop in virus titer ([3]; 50 μM, vs placebo): approximately three | virus titers after treatment ([3]; all treatments except the lowest dose): undetectable levels | EC50 (vaccinia, strain WR): 3.8 µM | inhibition of VEEV (VEEV): robust inhibition
